Assay results: PubChem BioAssay (NCI)
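1) Cells in 96-well plates. 2) Compound, 48 h, 5 concentrations. 3) Linear interpolation between surrounding doses. 4) Unreached endpoint = highest concentration. TGI: concentration producing complete growth inhibition.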

Assays:
Assay in all cases: DTP human tumour cell line panel, 48 h
LOX IMVI melanoma = system: LOX IMVI melanoma
UACC-62 melanoma = system: UACC-62 melanoma
HL-60(TB) leukemia = system: HL-60(TB) leukemia
NCI-H23 lung = system: NCI-H23 lung
SNB-75 CNS = system: SNB-75 CNS
786-0 renal = system: 786-0 renal
TK-10 renal = system: TK-10 renal
UACC-257 melanoma = system: UACC-257 melanoma
SF-295 CNS = system: SF-295 CNS
MOLT-4 leukemia = system: MOLT-4 leukemia
CAKI-1 renal = system: CAKI-1 renal
CCRF-CEM leukemia = system: CCRF-CEM leukemia
SK-MEL-28 melanoma = system: SK-MEL-28 melanoma
ACHN renal = system: ACHN renal
MDA-MB-231 breast = system: MDA-MB-231 breast
SR leukemia = system: SR leukemia
HOP-92 NSCLC = system: HOP-92 NSCLC
NCI-H226 lung = system: NCI-H226 lung
HOP-62 NSCLC = system: HOP-62 NSCLC
UO-31 renal = system: UO-31 renal
OVCAR-5 ovarian = system: OVCAR-5 ovarian
MDA-MB-435 = system: MDA-MB-435
OVCAR-3 ovarian = system: OVCAR-3 ovarian
NCI-H522 lung = system: NCI-H522 lung
HCC-2998 colon = system: HCC-2998 colon
HS 578T breast = system: HS 578T breast
T-47D breast = system: T-47D breast
HCT-15 colon = system: HCT-15 colon
EKVX NSCLC = system: EKVX NSCLC
HT29 colon = system: HT29 colon
DU-145 prostate = system: DU-145 prostate
MDA-N = system: MDA-N
IGROV1 ovarian = system: IGROV1 ovarian
COLO 205 colon = system: COLO 205 colon
RPMI-8226 leukemia = system: RPMI-8226 leukemia
RXF 393 renal = system: RXF 393 renal
MCF7 breast = system: MCF7 breast
SF-539 CNS = system: SF-539 CNS
NCI-H460 lung = system: NCI-H460 lung
SK-MEL-2 melanoma = system: SK-MEL-2 melanoma
SW-620 colon = system: SW-620 colon
M14 melanoma = system: M14 melanoma
SF-268 CNS = system: SF-268 CNS
OVCAR-8 ovarian = system: OVCAR-8 ovarian
MALME-3M melanoma = system: MALME-3M melanoma
KM12 colon = system: KM12 colon
SNB-19 CNS = system: SNB-19 CNS
SK-OV-3 ovarian = system: SK-OV-3 ovarian
SN12C renal = system: SN12C renal
K-562 leukemia = system: K-562 leukemia
A498 renal = system: A498 renal
SK-MEL-5 melanoma = system: SK-MEL-5 melanoma
PC-3 prostate = system: PC-3 prostate
BT-549 breast = system: BT-549 breast
A549 NSCLC = system: A549 NSCLC
U251 CNS = system: U251 CNS
HCT-116 colon = system: HCT-116 colon
NCI/ADR-RES ovarian = system: NCI/ADR-RES ovarian
OVCAR-4 ovarian = system: OVCAR-4 ovarian

With CC1C(NNc2ccccc2)Oc2cc3c(cc2C1c1ccccc1O)OCO3 (stereo not drawn) the TGI (LOX IMVI melanoma) was 28.6 µM, the TGI (UACC-62 melanoma) was 17.2 µM and the TGI (HL-60(TB) leukemia) was 15.1 µM. The TGI (NCI-H23 lung) was 26.5 µM, the TGI (SNB-75 CNS) was 23.6 µM and the TGI (786-0 renal) was 44.3 µM. For the same molecule, the TGI (TK-10 renal) was 18.3 µM, the TGI (UACC-257 melanoma) was 20.5 µM and the TGI (SF-295 CNS) was 3.49 µM. For the same molecule, the TGI (MOLT-4 leukemia) was 19.2 µM, the TGI (CAKI-1 renal) was 13.7 µM and the TGI (CCRF-CEM leukemia) was 13 µM. The TGI (SK-MEL-28 melanoma) was 26.6 µM, the TGI (ACHN renal) was 13.1 µM and the TGI (MDA-MB-231 breast) was 28.7 µM. It also gave a TGI (SR leukemia) of 11.6 µM, a TGI (HOP-92 NSCLC) of 26.9 µM and a TGI (NCI-H226 lung) of 33.2 µM. The TGI (HOP-62 NSCLC) was 16.2 µM, the TGI (UO-31 renal) was 11 µM and the TGI (OVCAR-5 ovarian) was 19.1 µM. It also gave a TGI (MDA-MB-435) of 12.5 µM, a TGI (OVCAR-3 ovarian) of 24.1 µM and a TGI (NCI-H522 lung) of 14.2 µM. The TGI (HCC-2998 colon) was 17 µM, the TGI (HS 578T breast) was 42.7 µM and the TGI (T-47D breast) was 16.2 µM. It also gave a TGI (HCT-15 colon) of 15.2 µM, a TGI (EKVX NSCLC) of 23.3 µM and a TGI (HT29 colon) of 19.4 µM. It also gave a TGI (DU-145 prostate) of 15.1 µM, a TGI (MDA-N) of 18.4 µM and a TGI (IGROV1 ovarian) of 19.3 µM. For the same molecule, the TGI (COLO 205 colon) was 24.5 µM, the TGI (RPMI-8226 leukemia) was 24.7 µM and the TGI (RXF 393 renal) was 45.9 µM. For the same molecule, the TGI (MCF7 breast) was 16.8 µM, the TGI (SF-539 CNS) was 4.56 µM and the TGI (NCI-H460 lung) was 18.5 µM. For the same molecule, the TGI (SK-MEL-2 melanoma) was 25.6 µM, the TGI (SW-620 colon) was 28.6 µM and the TGI (M14 melanoma) was 11.2 µM. The TGI (SF-268 CNS) was 32.6 µM, the TGI (OVCAR-8 ovarian) was 86.8 µM and the TGI (MALME-3M melanoma) was 10.4 µM. The TGI (KM12 colon) was 16.8 µM, the TGI (SNB-19 CNS) was 27.4 µM and the TGI (SK-OV-3 ovarian) was 22.3 µM. The TGI (SN12C renal) was 20.1 µM, the TGI (K-562 leukemia) was 4.34 µM and the TGI (A498 renal) was 29.2 µM. It also gave a TGI (SK-MEL-5 melanoma) of 24.1 µM, a TGI (PC-3 prostate) of 21.5 µM and a TGI (BT-549 breast) of 27.4 µM. It also gave a TGI (A549 NSCLC) of 15.2 µM, a TGI (U251 CNS) of 22.4 µM and a TGI (HCT-116 colon) of 18.7 µM.

Work on CN(C)CC1CCC/C(=C\c2ccc(OC(=O)c3ccc(Cl)cc3)cc2)C1=O (stereo not drawn) yielded a TGI (LOX IMVI melanoma) of 1.98 µM, a TGI (UACC-62 melanoma) of 13.4 µM and a TGI (HL-60(TB) leukemia) of 11.9 µM. For the same molecule, the TGI (NCI-H23 lung) was 3.5 µM, the TGI (SNB-75 CNS) was 9.16 µM and the TGI (786-0 renal) was 2.3 µM. For the same molecule, the TGI (TK-10 renal) was 5.19 µM, the TGI (UACC-257 melanoma) was 16.7 µM and the TGI (SF-295 CNS) was 9.84 µM. For the same molecule, the TGI (MOLT-4 leukemia) was 3.19 µM, the TGI (CAKI-1 renal) was 5.13 µM and the TGI (SK-MEL-28 melanoma) was 8.52 µM. The TGI (ACHN renal) was 8.44 µM, the TGI (MDA-MB-231 breast) was 5.73 µM and the TGI (SR leukemia) was > 100 µM. For the same molecule, the TGI (HOP-92 NSCLC) was 4.75 µM, the TGI (NCI-H226 lung) was 9.77 µM and the TGI (HOP-62 NSCLC) was 12.6 µM. It also gave a TGI (UO-31 renal) of 2.97 µM, a TGI (OVCAR-5 ovarian) of 5.95 µM and a TGI (MDA-MB-435) of 4.01 µM. For the same molecule, the TGI (OVCAR-3 ovarian) was 3.36 µM, the TGI (HCC-2998 colon) was > 29 µM and the TGI (HS 578T breast) was 10.3 µM. The TGI (T-47D breast) was 2.21 µM, the TGI (HCT-15 colon) was 3.3 µM and the TGI (EKVX NSCLC) was 6.16 µM. For the same molecule, the TGI (HT29 colon) was 4.1 µM, the TGI (DU-145 prostate) was 6.79 µM and the TGI (MDA-N) was 7.45 µM. It also gave a TGI (NCI/ADR-RES ovarian) of 4.99 µM, a TGI (IGROV1 ovarian) of 8.27 µM and a TGI (COLO 205 colon) of 4.81 µM. It also gave a TGI (RPMI-8226 leukemia) of 1.99 µM, a TGI (OVCAR-4 ovarian) of 8.94 µM and a TGI (MCF7 breast) of 1.58 µM. It also gave a TGI (SF-539 CNS) of 5.41 µM, a TGI (NCI-H460 lung) of 17.5 µM and a TGI (SK-MEL-2 melanoma) of 10.6 µM. It also gave a TGI (SW-620 colon) of 2.71 µM, a TGI (M14 melanoma) of 3.27 µM and a TGI (SF-268 CNS) of 9.07 µM. It also gave a TGI (OVCAR-8 ovarian) of 3.23 µM, a TGI (MALME-3M melanoma) of 6.8 µM and a TGI (KM12 colon) of 5.9 µM. It also gave a TGI (SNB-19 CNS) of 13.7 µM, a TGI (SK-OV-3 ovarian) of 34.6 µM and a TGI (SN12C renal) of 4.84 µM. For the same molecule, the TGI (K-562 leukemia) was 3.8 µM, the TGI (A498 renal) was 22.6 µM and the TGI (SK-MEL-5 melanoma) was 12.1 µM. It also gave a TGI (PC-3 prostate) of 18.4 µM, a TGI (BT-549 breast) of 7.55 µM and a TGI (A549 NSCLC) of 7.26 µM. It also gave a TGI (U251 CNS) of 3.08 µM and a TGI (HCT-116 colon) of 2.23 µM.
